Measurements taken from the METLIN SMRT retention time set (Domingo-Almenara et al. 2019).

Assay: gradient 5% acetonitrile 3 min, to 50% in 2 min, to 85% in 15 min, held 3 min, 100 µL/min
Settings: column: Zorbax Extend-C18 2.1 x 50 mm; eluents: water / acetonitrile, 0.1% formic acid
Method in brief: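 The system's dead and dwell volumes were 40 μL and 900 μL, with a Zorbax Extend-C18 column (2.1 × 50 mm, 1.8 μm) run at 100 μL/min in water and acetonitrile containing 0.1% formic acid each. Pure standards were analyzed in mixtures of ~100 molecules by HPLC–quadrupole time-of-flight mass spectrometry in positive and negative ionization mode. Retention time was assigned from computationally picked, manually inspected adduct peaks.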

RP-LC retention time | Compound
1120 s | CC(C)(C)c1noc(-c2ccc(=O)n(Cc3ccc(Cl)cc3)n2)n1
1030 s | O=C(NCC1COc2ccccc2O1)C(=O)Nc1cccc(Br)c1 (configuration not stated)
933 s | COc1ccc(-c2nc(NCCC3=CCCCC3)c3ccccc3n2)cc1
1260 s | O=C(COc1cccc(Cl)c1)Nc1nc(-c2ccc(Br)cc2)cs1
760 s | CC(C)(C)OC(=O)N1CCN(c2ncc(C(=O)Nc3ccccc3)c(N)n2)CC1
859 s | Cc1nn2c(CNS(=O)(=O)c3ccc(F)cc3)c(-c3ccccc3)nc2s1
689 s | Cc1cc2[nH]c(C(=O)NCc3ccc(F)cc3)c(CN3CCOCC3)c2s1
681 s | O=C(NCC(c1cccnc1)N1CCc2ccccc2C1)C(=O)NC1CCCCCC1 (configuration not stated)
1230 s | COc1ccc2c(c1)-c1nc(NC(=O)c3cccc(Br)c3)sc1CC2
550 s | O=C(N[C@@H]1CN(c2ccncn2)C[C@H]1CO)C1CCCC1
612 s | CCn1cc(CN(C)C(=O)C2N(C(C)C)C(=O)C23CCCC3)c(C)n1 (configuration not stated)
953 s | CCCn1c(=O)c(N2CCC(NC(=O)NC3CCCCC3)CC2)nc2ccccc21
1110 s | O=C(NCc1ccccc1C(F)(F)F)C1CCCN(c2nccnc2Sc2ccccc2)C1 (configuration not stated)
677 s | COc1ccc(C(=O)c2cnc3ccc(OC)cc3c2N2CCOCC2)cc1
615 s | CN(C)c1ccc(CNC(=O)Cn2cc(-c3nnco3)c3ccccc32)cc1
1090 s | COc1ccccc1NC(=O)Cn1c(C)nc2c(sc3nc(-c4ccccc4)ccc32)c1=O
848 s | N#Cc1ccc(C(=O)Nc2cnn(-c3ncc(N4CCCCC4)cn3)c2)cc1
598 s | CC(C)NC(=O)N1CCCN(S(C)(=O)=O)CC1
1280 s | Cc1ccc(-c2nc(N)n(C(=O)c3ccc(C(C)(C)C)cc3)n2)cc1

RP-LC retention time | Compound
762 s | CC(C)c1ccc(NC(=O)Cn2cnc3nc4c(cc3c2=O)CCCC4)cc1
588 s | CN1CCN(CCNC(=O)C2CCN(c3nc4ccccc4n(C)c3=O)CC2)CC1
860 s | Cc1cccc(S(=O)(=O)N2CCN(c3cc(C)nc(NC4CCCCC4)n3)CC2)c1
1210 s | COc1ccccc1NC(=O)c1c(O)c2cccnc2n(-c2cccc(F)c2)c1=O
853 s | Cc1ccc(Cl)cc1NC(=O)N1CCCC1c1c(C)noc1C (configuration not stated)
956 s | Cc1cc(C)cc(N2CCC(NC(=O)c3ccc(Cl)s3)C2=O)c1 (configuration not stated)
1020 s | CN(C(=O)Cn1cnc2c(-c3ccc(Cl)cc3)csc2c1=O)c1ccccc1
1020 s | Cc1cccc(-c2nnc(-c3ccc(Cl)c(S(=O)(=O)N4CCOCC4)c3)o2)c1
606 s | Cc1cnc(C(=O)NC2C[C@H]3CC[C@@H](C2)N3C(=O)C2CC2)cn1 (some centres not stated)
1050 s | O=C(Nc1cnc(-c2ccccc2)nc1)c1cccc(Cl)c1
1100 s | Cc1nc2cc(-c3noc(-c4c(F)cccc4Cl)n3)ccc2o1
817 s | COc1ccc(OCc2noc(CNC(=O)c3cc(C)oc3C)n2)cc1
748 s | CCc1ccc(Nc2nc(C(=O)NCCOC)nc3ccccc23)cc1
952 s | O=C(c1cn(-c2cc(N3CCSCC3)ncn2)cn1)N1CCc2ccccc21
669 s | Cc1ccc(NC(=O)N2CCN(c3cc(C)nc(N4CCOCC4)n3)CC2)c(Cl)c1
808 s | COc1ccc(N2C(=O)CN(C(C)c3ccccc3)[C@H]3CS(=O)(=O)C[C@H]32)cc1 (some centres not stated)
801 s | O=C(NCc1ccc(F)c(Cl)c1)c1cn(-c2ccc(NC(=O)C3CC3)cn2)cn1
1040 s | Cc1ccc(-c2noc(Cn3c(=O)n(CC4CCCO4)c(=O)c4ccccc43)n2)cc1 (configuration not stated)
